Measured values taken from patent publication US20100113466A1, “OXAZOLE-PYRIDAZINE-OXAZOLE ALPHA-HELIX MIMETIC” (The Scripps Research Institute, priority 2008, published 2010).

Biological target: Bcl-xL (Homo sapiens, UniProt Q07817)
Experiment: Bak/Bcl-XL competitive fluorescence polarization binding assay with fluorescein labeled Bid peptide
Conditions: displacement of fluorescein labeled Bid peptide from Bcl-xL; mP values only in drawings
Description: The affinity of each molecule within the library of potential Bak mimetics can be assayed with respect to binding to Bcl-xL receptor. The binding affinity can be determined, for example, by a competitive binding assay based on fluorescence polarization. See Wang, et al., Proc. Natl. Acad. Sci., 2000, 97:7124-7129.
Competitive fluorescence polarization-based assays require a dye-labeled peptide to determine if the small molecule has affinity for the target protein. These assays can be carried out with a fluorescein labeled Bid peptide. […] When a solution of fluorescein labeled Bid peptide is irradiated with polarized light, the peptide rotates quickly and the emitted light is depolarized. Upon complexation with the target Bcl-xL protein, the larger complex rotates slowly and the emitted light remains polarized.
When the fluorescein-labeled Bid/Bcl-xL complex is exposed to small molecules with binding affinity for Bcl-xL, the Bid peptide is displaced and the amount of depolarized light emitted increases. This polarization amount (mP) provides an estimate of the affinity for the small molecules for Bcl-xL
See Kutzki, et al., J. Am. Chem. Soc., 2002, 124:11838-11839. This compound acts as a positive control.
These compounds represent the strongest binders for Bcl-xL of the Bak mimetic library, with structure and mP values shown below.

Sequence of Bcl-xL (Q07817 whole entry, species assumed): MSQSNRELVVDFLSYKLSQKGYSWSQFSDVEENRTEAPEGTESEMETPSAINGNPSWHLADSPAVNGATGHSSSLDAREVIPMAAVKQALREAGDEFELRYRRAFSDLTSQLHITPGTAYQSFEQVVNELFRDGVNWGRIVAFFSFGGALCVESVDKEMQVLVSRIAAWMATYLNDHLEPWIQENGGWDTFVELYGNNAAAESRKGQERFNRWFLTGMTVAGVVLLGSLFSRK

Row | Structure (SMILES) | activity (mP value) in binding to Bcl-xL
1 | CC(C)Cc1cc(C(=O)N2CCC[C@@H](OCc3ccccc3)C2)nnc1-c1nc(C(C)C)co1 [Compound 4.73, (R)-(3-(Benzyloxy)piperidin-1-yl)(5-isobutyl-6-(4-isopropyloxazol-2-yl)pyridazin-3-yl)methanone] | particularly active
2 | CC(C)Cc1cc(-c2nc(C(C)C)co2)nnc1-c1nc(C(C)C)co1 [Compound 4.53, 2,2′-(4-isobutylpyridazine-3,6-diyl)bis(4-isopropyloxazole)] | particularly active
